The values below come from patent publication US9931444B2, “Polymeric composite materials with antimicrobial and biodegradable properties and uses thereof” (FONDAZIONE ISTITUTO ITALIANO DI TECNOLOGIA, priority 2012, dated 2018).

Assay [1] relates to E. Coli. The assay can be described thus: Minimum bactericidal concentration of iodopovidone. Format: cell-based.
In assay [2] the test system is C. albicans. The assay can be described thus: Minimum fungicidal concentration of iodopovidone. In kind it is cell-based.

Substance iodopovidone had a minimum bactericidal concentration in assay [1] of 2000 µM. This substance also came in with a minimum fungicidal concentration in assay [2] of 1000 µM.
